Measured values published in PubChem BioAssay AID1963829 (Molecular Pharmacology Branch, DTP, NCI, 2024).

Tested on: 935938-334-R-J1-PDC complex spheroid viability
Assay: Anticancer human tumor 935938-334-R-J1-PDC patient-derived small intestine adenocarcinoma cell line growth inhibition [POLQ]
Conditions: for IC50: curve of first compound; for viability, T/C: stronger effect = lower value
How it was run: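 Growth inhibition in 3D: complex spheroids (tumor PDC, HUVEC, MSC) treated with POLQ inhibitor combinations; where Cmax unknown, highest tested concentration 10 microM, except SN-38 at 1 microM.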

[1] = second compound 0.0316 µM, first compound 0.0316 µM
[2] = second compound 0.0316 µM, first compound 0.1 µM
[3] = second compound 0.0316 µM, first compound 0.316 µM
[4] = second compound 0.0316 µM, first compound 1 µM
[5] = second compound 0.0316 µM, first compound 3.16 µM
[6] = second compound 0.0316 µM, first compound 10 µM
[7] = second compound 0.1 µM, first compound 0.0316 µM
[8] = second compound 0.1 µM, first compound 0.1 µM
[9] = second compound 0.1 µM, first compound 0.316 µM
[10] = second compound 0.1 µM, first compound 1 µM
[11] = second compound 0.1 µM, first compound 3.16 µM
[12] = second compound 0.1 µM, first compound 10 µM
[13] = second compound 0.316 µM, first compound 0.0316 µM
[14] = second compound 0.316 µM, first compound 0.1 µM
[15] = second compound 0.316 µM, first compound 0.316 µM
[16] = second compound 0.316 µM, first compound 1 µM
[17] = second compound 0.316 µM, first compound 3.16 µM
[18] = second compound 0.316 µM, first compound 10 µM
[19] = second compound 1 µM, first compound 0.0316 µM
[20] = second compound 1 µM, first compound 0.1 µM
[21] = second compound 1 µM, first compound 0.316 µM
[22] = second compound 1 µM, first compound 1 µM
[23] = second compound 1 µM, first compound 3.16 µM
[24] = second compound 1 µM, first compound 10 µM
[25] = second compound 3.16 µM, first compound 0.0316 µM
[26] = second compound 3.16 µM, first compound 0.1 µM
[27] = second compound 3.16 µM, first compound 0.316 µM
[28] = second compound 3.16 µM, first compound 1 µM
[29] = second compound 3.16 µM, first compound 3.16 µM
[30] = second compound 3.16 µM, first compound 10 µM
[31] = second compound 10 µM, first compound 0.0316 µM
[32] = second compound 10 µM, first compound 0.1 µM
[33] = second compound 10 µM, first compound 0.316 µM
[34] = second compound 10 µM, first compound 1 µM
[35] = second compound 10 µM, first compound 3.16 µM
[36] = second compound 10 µM, first compound 10 µM
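Note: spheroids exposed to drugs for seven days before viability read.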
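Throughout, for viability, T/C: 100% = DMSO vehicle control wells.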

CC(C)n1c(=O)n(C)c2cnc3cc(F)c(-c4ccc(OCCCN5CCCCC5)nc4)cc3c21 + Cc1cccc(N(C)C(=O)C2C(O)CCN2c2nc(C)cc(C(F)(F)F)c2C#N)c1
IC50 (second compound 0.0316 µM): > 10000 nM | IC50 (second compound 0.1 µM): > 10000 nM | IC50 (second compound 0.316 µM): > 10000 nM | IC50 (second compound 1 µM): > 10000 nM | IC50 (second compound 3.16 µM): > 10000 nM | IC50 (second compound 10 µM): > 10000 nM | viability, T/C [1]: 86.8% | viability, T/C [2]: 98.4% | viability, T/C [3]: 77.5% | viability, T/C [4]: 112% | viability, T/C [5]: 111% | viability, T/C [6]: 125% | viability, T/C [7]: 85.9% | viability, T/C [8]: 84.7% | viability, T/C [9]: 82.8% | viability, T/C [10]: 82% | viability, T/C [11]: 110% | viability, T/C [12]: 88.3% | viability, T/C [13]: 97.5% | viability, T/C [14]: 94.9% | viability, T/C [15]: 100% | viability, T/C [16]: 97% | viability, T/C [17]: 94.2% | viability, T/C [18]: 97.3% | viability, T/C [19]: 88% | viability, T/C [20]: 103% | viability, T/C [21]: 89.1% | viability, T/C [22]: 93.5% | viability, T/C [23]: 105% | viability, T/C [24]: 98.7% | viability, T/C [25]: 93.4% | viability, T/C [26]: 93.7% | viability, T/C [27]: 100% | viability, T/C [28]: 98.1% | viability, T/C [29]: 112% | viability, T/C [30]: 89.5% | viability, T/C [31]: 105% | viability, T/C [32]: 80.6% | viability, T/C [33]: 90.5% | viability, T/C [34]: 84.6% | viability, T/C [35]: 76.9% | viability, T/C [36]: 80.1%

COc1cc2cc(C(=O)CCC(=O)O)sc2cc1OC + Cc1cccc(N(C)C(=O)C2C(O)CCN2c2nc(C)cc(C(F)(F)F)c2C#N)c1
IC50 (second compound 0.0316 µM): > 10000 nM | IC50 (second compound 0.1 µM): > 10000 nM | IC50 (second compound 0.316 µM): > 10000 nM | IC50 (second compound 1 µM): > 10000 nM | IC50 (second compound 3.16 µM): > 10000 nM | IC50 (second compound 10 µM): > 10000 nM | viability, T/C [1]: 116% | viability, T/C [2]: 84.3% | viability, T/C [3]: 88.5% | viability, T/C [4]: 83.9% | viability, T/C [5]: 85.1% | viability, T/C [6]: 80.8% | viability, T/C [7]: 100% | viability, T/C [8]: 85.6% | viability, T/C [9]: 92.4% | viability, T/C [10]: 95.7% | viability, T/C [11]: 62.9% | viability, T/C [12]: 81.9% | viability, T/C [13]: 79.7% | viability, T/C [14]: 82.5% | viability, T/C [15]: 68.3% | viability, T/C [16]: 88.9% | viability, T/C [17]: 84.8% | viability, T/C [18]: 93.8% | viability, T/C [19]: 91.7% | viability, T/C [20]: 96.5% | viability, T/C [21]: 103% | viability, T/C [22]: 81.1% | viability, T/C [23]: 74% | viability, T/C [24]: 83.4% | viability, T/C [25]: 82.1% | viability, T/C [26]: 95.6% | viability, T/C [27]: 98.5% | viability, T/C [28]: 95.9% | viability, T/C [29]: 98.2% | viability, T/C [30]: 95.1% | viability, T/C [31]: 135% | viability, T/C [32]: 75.6% | viability, T/C [33]: 96.2% | viability, T/C [34]: 112% | viability, T/C [35]: 114% | viability, T/C [36]: 105%

COc1cc(C2c3cc4c(cc3C(OC3OC5COC(C)OC5C(O)C3O)C3COC(=O)C23)OCO4)cc(OC)c1O (stereo not drawn) + Cc1cccc(N(C)C(=O)C2C(O)CCN2c2nc(C)cc(C(F)(F)F)c2C#N)c1
IC50 (second compound 0.0316 µM): 577 nM | IC50 (second compound 0.1 µM): 870 nM | IC50 (second compound 0.316 µM): 743 nM | IC50 (second compound 1 µM): 471 nM | IC50 (second compound 3.16 µM): 397 nM | IC50 (second compound 10 µM): 353 nM | viability, T/C [1]: 89.9% | viability, T/C [2]: 112% | viability, T/C [3]: 65.5% | viability, T/C [4]: 41.6% | viability, T/C [5]: 33.3% | viability, T/C [6]: 32.7% | viability, T/C [7]: 104% | viability, T/C [8]: 94.6% | viability, T/C [9]: 73.7% | viability, T/C [10]: 47.3% | viability, T/C [11]: 33.5% | viability, T/C [12]: 35.9% | viability, T/C [13]: 131% | viability, T/C [14]: 114% | viability, T/C [15]: 74.1% | viability, T/C [16]: 40.6% | viability, T/C [17]: 34.2% | viability, T/C [18]: 33.8% | viability, T/C [19]: 116% | viability, T/C [20]: 78% | viability, T/C [21]: 61% | viability, T/C [22]: 35.9% | viability, T/C [23]: 30.4% | viability, T/C [24]: 30.2% | viability, T/C [25]: 84.2% | viability, T/C [26]: 93.6% | viability, T/C [27]: 54% | viability, T/C [28]: 37.4% | viability, T/C [29]: 28.7% | viability, T/C [30]: 34.7% | viability, T/C [31]: 110% | viability, T/C [32]: 73.7% | viability, T/C [33]: 56.2% | viability, T/C [34]: 33.7% | viability, T/C [35]: 31.1% | viability, T/C [36]: 33.1%

C#Cc1c(F)ccc2cc(O)cc(-c3ncc4c(N5CC6CCC(C5)N6)nc(OCC56CCCN5CC(F)C6)nc4c3F)c12 (stereo not drawn) + Cc1cccc(N(C)C(=O)C2C(O)CCN2c2nc(C)cc(C(F)(F)F)c2C#N)c1
IC50 (second compound 0.0316 µM): 2410 nM | IC50 (second compound 0.1 µM): 3390 nM | IC50 (second compound 0.316 µM): 1490 nM | IC50 (second compound 1 µM): 1730 nM | IC50 (second compound 3.16 µM): 2020 nM | IC50 (second compound 10 µM): 576 nM | viability, T/C [1]: 89.8% | viability, T/C [2]: 97.8% | viability, T/C [3]: 65.1% | viability, T/C [4]: 75.2% | viability, T/C [5]: 40.2% | viability, T/C [6]: 29.7% | viability, T/C [7]: 80.3% | viability, T/C [8]: 75.2% | viability, T/C [9]: 62% | viability, T/C [10]: 60.9% | viability, T/C [11]: 53.4% | viability, T/C [12]: 39.4% | viability, T/C [13]: 97.5% | viability, T/C [14]: 88.9% | viability, T/C [15]: 87.6% | viability, T/C [16]: 54.6% | viability, T/C [17]: 41.9% | viability, T/C [18]: 33.4% | viability, T/C [19]: 92% | viability, T/C [20]: 75% | viability, T/C [21]: 64.3% | viability, T/C [22]: 64.8% | viability, T/C [23]: 36.5% | viability, T/C [24]: 35.5% | viability, T/C [25]: 72.5% | viability, T/C [26]: 81.1% | viability, T/C [27]: 54.4% | viability, T/C [28]: 70.7% | viability, T/C [29]: 37.3% | viability, T/C [30]: 31.8% | viability, T/C [31]: 85.4% | viability, T/C [32]: 73.7% | viability, T/C [33]: 61.5% | viability, T/C [34]: 38.6% | viability, T/C [35]: 36.6% | viability, T/C [36]: 29.6%
